In patent US12404304B1, “Telomerase reverse transcriptase (TERT) expression enhancing compounds and methods for using the same” (Sierra Sciences, LLC, priority 2007, dated 2025):

Legend:
[1] = tested on: human TERT expression (hTERT mRNA); assay: Quantitative real-time RT-PCR of hTERT mRNA expression (Ct, transcripts) in compound-treated cells; assay type: cell-based; details: quantitative real-time RT-PCR
Source text: Telomerase is a ribonucleoprotein complex composed of the catalytic protein subunit (human telomerase reverse transcriptase or hTERT) and the RNA template. hTERT expression level can be measured by PCR.
Briefly, amplification of the target sequence is monitored per PCR cycle by detecting the fluorescence signal emitted by an internal probe that is degraded by the 5′ nuclease activity of the Taq polymerase. The emission signal accumulates in each sample, and the Ct required to reach a given fluorescence threshold is determined (Ct stands for Cycle Threshold and is a measure of the number of PCR cycles that are required to amplify a target—thus, a lower Ct score means that there is more abundant hTERT mRNA). Thus, the Ct value of a sample inversely correlates to the quantity of the starting cDNA which correlates to the number of mRNA transcripts. Using the cDNA of known quantity, a standard curve can be generated and used to determine the starting amount of mRNA transcripts based on the […] of each sample.
Quantitative real-time PCR can be done on cDNA from test compound-treated and nontreated cells by use of a ABI Prism 7900 Sequence Detection System (PE Applied Biosystems, Foster City, CA) following the Assays-on-Demand protocol (PE Applied Biosystems, Foster City, CA). Quantitative data can be analyzed using the Sequence Detection System software version 2.1 (PE Applied Biosystems).
The following compounds were tested in assays designed to identify compounds that enhance human TERT expression.

viable cells in culture = assay: Cell viability assay (CellTiter-Glo Luminescent Cell Viability Assay, ATP quantitation, percent of vehicle control)

Row | SMILES | Average Number of hTERT Transcripts [1] | Average Cell Viability after 24 Hours (% DMSO) (viable cells in culture)
1 | Cc1nc(-n2nc(C)c(CC(=O)N3CCN(c4ccc(F)cc4)CC3)c2O)sc1C [compound 1125] | 82.95 | 78.39
2 | Cc1nc(-n2nc(C)c(CC(=O)N3CCCCC3)c2O)sc1C [compound 1126] | 75.66 | 95.13
3 | CCOC(=O)N1CCN(C(=O)Cc2c(C)nn(-c3nc(C)c(C)s3)c2O)CC1 [compound 1127] | 20.86 | 92.15
4 | Cc1nc(-n2nc(C)c(CC(=O)Nc3ccc(F)cc3)c2O)sc1C [compound 1128] | 42.25 | 86.93
5 | CCCCc1c(C)nn(-c2nc(C)c(C(=O)OCC)s2)c1O [compound 1129] | 54.36 | 68.77
6 | CCOC(=O)c1sc(-n2nc(C)c(Cc3ccc(C)cc3)c2O)nc1C [compound 1130] | 31.93 | 70.45
7 | CCOC(=O)c1sc(-n2nc(C)c(Cc3ccc(Cl)cc3)c2O)nc1C [compound 1131] | 95.19 | 75.57
8 | Cc1csc(-n2nc(C)c(CCC(=O)Nc3ccc(F)cc3)c2O)n1 [compound 1132] | 81.62 | 91.26
9 | Cc1csc(-n2nc(C)c(CCC(=O)Nc3ccc(Br)cc3)c2O)n1 [compound 1133] | 108.84 | 77.29
10 | Cc1csc(-n2nc(C)c(CCC(=O)Nc3ccc(Cl)cc3)c2O)n1 [compound 1134] | 127.97 | 87.25
11 | CCCCNC(=O)CCc1c(C)nn(-c2nc(C)c(C)s2)c1O [compound 1135] | 23.88 | 88.69
12 | Cc1nc(-n2nc(C)c(CCC(=O)N3CCN(c4ccc(F)cc4)CC3)c2O)sc1C [compound 1136] | 135.61 | 90.51
13 | Cc1nc(-n2nc(C)c(CCC(=O)N3CCCCC3)c2O)sc1C [compound 1137] | 81.62 | 81.10
14 | Cc1nc(-n2nc(C)c(CCC(=O)Nc3ccc(F)cc3)c2O)sc1C [compound 1138] | 162.66 | 87.23
15 | Cc1nc(-n2nc(C)c(CCC(=O)Nc3ccc(Br)cc3)c2O)sc1C [compound 1139] | 19.61 | 74.45
16 | Cc1nnc(SCc2cc(O)n(-c3nc4ccccc4s3)n2)s1 [compound 1141] | 19.39 | 71.38
17 | Cc1ccc(Cc2c(C)nn(-c3nc4ccccc4[nH]3)c2O)cc1 [compound 1143] | 22.65 | 35.07
18 | Cc1nn(-c2nc3ccccc3[nH]2)c(O)c1Cc1ccccc1Cl [compound 1144] | 54.47 | 40.68
19 | Cc1nn2c(=O)c(Cc3ccccc3)c(C)[nH]c2c1-c1ccc(Cl)cc1 [compound 1145] | 76.07 | 63.03
20 | Cc1[nH]c2c(-c3ccc(Cl)cc3)cnn2c(=O)c1Cc1ccccc1 [compound 1146] | 57.84 | 63.23
21 | Cc1[nH]c2c(-c3cccc(Br)c3)cnn2c(=O)c1Cc1ccccc1 [compound 1147] | 29.83 | 61.72
22 | O=c1cc(Cc2ccccc2)[nH]c2c(-c3ccccc3)c(-c3ccccc3)nn12 [compound 1148] | 108.34 | 88.31
23 | O=c1cc(Cc2ccccc2)[nH]c2c(-c3ccc(Cl)cc3)cnn12 [compound 1149] | 91.14 | 87.19
24 | COc1ccc(-c2cc(=O)n3nc(C)c(-c4ccccc4)c3[nH]2)cc1 [compound 1150] | 80.37 | 86.82
25 | Cc1ccc(-c2cc(=O)n3nc(C)c(-c4ccccc4)c3[nH]2)cc1 [compound 1151] | 164.58 | 77.04

Row | SMILES | Average Number of hTERT Transcripts [1] | Average Cell Viability after 24 Hours (% DMSO) (viable cells in culture)
26 | Cc1nn2c(=O)cc(-c3ccccc3)[nH]c2c1-c1ccc(F)cc1 [compound 1152] | 64.86 | 73.68
27 | Cc1nn2c(=O)c(Cl)c(C)[nH]c2c1-c1ccccc1 [compound 1153] | 5.84 | 88.39
28 | COc1ccc(-c2cc(=O)n3nc(C)c(-c4ccc(F)cc4)c3[nH]2)cc1 [compound 1154] | 48.37 | 69.15
29 | CCCc1c(C)[nH]c2c(-c3ccc(Cl)cc3)c(C)nn2c1=O [compound 1155] | 15.30 | 80.19
30 | Cc1nn2c(=O)cc(-c3ccc(Cl)cc3)[nH]c2c1-c1ccccc1 [compound 1156] | 45.97 | 61.07
31 | Cc1cc(=O)n2ncc(-c3ccc(Cl)cc3)c2[nH]1 [compound 1157] | 16.13 | 71.08
32 | CCCc1cc(=O)n2ncc(-c3ccc(Cl)cc3)c2[nH]1 [compound 1158] | 71.35 | 62.57
33 | O=c1c2c([nH]c3c(-c4ccc(Cl)cc4)cnn13)CCCC2 [compound 1159] | 5.22 | 55.24
34 | O=c1c2c([nH]c3c(-c4ccc(Cl)cc4)cnn13)CCC2 [compound 1160] | 54.13 | 59.19
35 | O=c1c(-c2ccccc2)c[nH]c2c(-c3ccccc3)cnn12 [compound 1161] | 139.82 | 62.93
36 | Cc1nn2c(=O)cc(-c3ccccc3)[nH]c2c1-c1ccccc1 [compound 1162] | 113.08 | 65.07
37 | Cc1nn2c(=O)cc(CSc3nnnn3-c3ccccc3)[nH]c2c1-c1ccc(Cl)cc1 [compound 1163] | 68.40 | 70.88
38 | Cc1nn2c(=O)cc(-c3ccccc3Cl)[nH]c2c1-c1ccccc1 [compound 1164] | 56.66 | 71.68
39 | Cc1nn2c(=O)c(Cc3ccc(Br)cc3)c(C)[nH]c2c1-c1ccccc1 [compound 1165] | 132.12 | 55.73
40 | Cc1nn2c(=O)c(Cc3cccc(Cl)c3)c(C)[nH]c2c1-c1ccccc1 [compound 1166] | 152.34 | 77.99
41 | CCCCc1c(C)[nH]c2c(-c3ccc(Cl)cc3)c(C)nn2c1=O [compound 1167] | 66.71 | 97.27
42 | Cc1ccc(SCc2cc(=O)n3nc(C)c(-c4ccc(F)cc4)c3[nH]2)cc1 [compound 1168] | 79.80 | 63.67
43 | Cc1nn2c(=O)cc(-c3ccc(F)cc3)[nH]c2c1-c1ccccc1 [compound 1169] | 122.92 | 56.42
44 | COc1ccc2sc(Nc3nc(C)n(-c4ccccc4)c(=O)n3)nc2c1 [compound 1170] | 102.53 | 36.74
45 | O=C(Nc1nc(-c2ccccn2)cs1)c1ccc(Br)s1 [compound 1171] | 22.66 | 56.61
46 | COc1cc(OC)cc(C(=O)Nc2nc(-c3ccccn3)cs2)c1 [compound 1172] | 28.72 | 88.81
47 | O=C(Nc1nc(-c2ccccn2)cs1)c1cccc(S(=O)(=O)N2CCOCC2)c1 [compound 1173] | 43.63 | 86.99
48 | O=C(Nc1nc(-c2ccccn2)cs1)c1cccc(S(=O)(=O)N2CCCCC2)c1 [compound 1174] | 12.12 | 73.06
49 | CCCN(CCC)S(=O)(=O)c1cccc(C(=O)Nc2nc(-c3ccccn3)cs2)c1 [compound 1175] | 29.54 | 74.43
50 | COc1ccc(-c2nnc(NC(=O)c3ccc(Cl)cc3)o2)cc1 [compound 1178] | 63.78 | 83.07
